“Also recorded” adds a separate entry of the source.
Legend:
[1] = tested on: human SW1573 lung cancer cells; assay: Tumor cell proliferation in nude mice with SW1573 cells, paclitaxel; assay type: in vivo; details: increasing doses, 2H2O labeling 24 hours
Procedure: (§1) Nude mice were implanted with human SW1573 lung cancer cells (5×10^6 cells/animal), injected with varying doses of paclitaxel, and labeled with ^2H2O for 24 hours. Both vehicle (1:1 [v/v] solution of ethanol:cremephor EL) and paclitaxel stock (dissolved in 1:1 v/v solution of ethanol:cremephor EL) were diluted 1:6, prior to injection into animals, with sterile 0.1 M Phosphate Buffered Saline (PBS). Tumor cells and bone marrow cells were removed using techniques well known in the art and as described, supra.
(§2) Colonocytes were removed as follows: The colon was removed from animals and washed with 0.1 M Phosphate Buffered Saline (PBS), cut open, and incubated in PBS containing collagenase type2 (72 mg/mL) and DNase (10 μg/mL) at 37° C., gently shaken for 40 minutes. After incubation, tissue was gently scraped and cells were collected by centrifugation at 800×g for 5 minutes at 4° C. The pellet was homogenously suspended in 45% percoll in 1.6% JMEM medium. The suspension was applied on top of a 5 mL cushion of 45% (v/v) percoll in a 75% percoll gradient and centrifuged at 350×g for 30 minutes at room temperature. Colonocytes were collected and washed twice with PBS. Debris was then separated from the cell suspension using a […] filter. […] FIG. 11 depicts the results.

mouse bone marrow cells = assay: Bone marrow cell proliferation in nude mice, paclitaxel; assay type: in vivo; details: SW1573, increasing doses, 2H2O labeling 24 hours
Procedure: as §1, §2

[2] = tested on: mouse colon cells (colonocytes); assay: Colonocyte proliferation in nude mice, paclitaxel; assay type: in vivo; details: SW1573, increasing doses, 2H2O labeling 24 hours
Procedure: as §1, §2

liver cell = assay: Liver cell proliferation after griseofulvin in chow; details: C57BL/6 mice, below the no observable effect level, 5 days
Procedure: (§3) Cell proliferation and collagen synthesis (turnover) were also assessed concurrently (i.e., simultaneously) in mice (C57BL/6 and Balb/c) fed griseofulvin. Griseofulvin is recognized as a hepatotoxin, inducing cell proliferation and porphyria. Mice were administered griseofulvin in their chow (1% w/w) for 5 days.

liver collagen = assay: Liver collagen synthesis (turnover) after griseofulvin in chow; assay type: in vivo, mouse; details: C57BL/6 mice, doses tested, 5 days (data not shown)
Procedure: as §3

Structure (SMILES) | tumor cell proliferation relative to vehicle controls [1] | bone marrow cell proliferation relative to vehicle controls (mouse bone marrow cells) | colonocyte proliferation relative to vehicle controls [2] | liver cell proliferation, lowest dose / levels below the NOEL (liver cell) | liver collagen synthesis (collagen turnover) (liver collagen)
CC(=O)O[C@H]1C(=O)[C@@]2(C)[C@H]([C@H](OC(=O)c3ccccc3)[C@]3(O)C[C@H](OC(=O)[C@H](O)[C@@H](NC(=O)c4ccccc4)c4ccccc4)C(C)=C1C3(C)C)[C@]1(OC(C)=O)CO[C@@H]1C[C@@H]2O [paclitaxel] | inhibitory effect, in a dose-dependent manner; also recorded: inhibited, in a dose-dependent manner | little or no effect | inhibitory effect, in a dose-dependent manner; also recorded: inhibited, in a dose-dependent manner | – | –
COC1=CC(=O)C[C@@H](C)[C@]12Oc1c(Cl)c(OC)cc(OC)c1C2=O [griseofulvin] | – | – | – | pronounced effects and dose responsiveness; also recorded: observable effect | no increase; also recorded: no effect

— patent US7357913B2, “Methods for detecting, prognosing, or monitoring a disorder by comparing relative flux rates of two or more biological molecules in vivo” (The Regents of the University of California, priority 2003, dated 2008)
